Literature values in patent US20160193276A1 (Teva Pharmaceutical Industries, Ltd., priority 2012, published 2016).

What was measured:
[1] = system: patients with relapsing multiple sclerosis; settings: administered orally
mice = settings: orally administered
MS patients = settings: 20 mg/day subcutaneous (s.c.)
rats = settings: orally administered

Substance: L-glutamic acid polymer with L-alanine, L-lysine, L-tyrosine, acetate (salt) [glatiramer acetate]
- Relapse rate or other clinical MRI parameters of disease activity [1]: did not affect
- Induction of EAE (mice): inhibited
- Total number of enhancing lesions as measured by MRI (MS patients): reduce
- Induction of EAE (rats): inhibited
